Measurements from ChEMBL document CHEMBL1137293, “Discovery of oxadiazoyl tertiary carbinamine inhibitors of beta-secretase (BACE-1)” (J Med Chem, 2006).

The compounds below were run against Beta-secretase 1 (Homo sapiens, UniProt P56817) (assay: Inhibition of BACE1).
Sequence of Beta-secretase 1 (P56817 whole entry): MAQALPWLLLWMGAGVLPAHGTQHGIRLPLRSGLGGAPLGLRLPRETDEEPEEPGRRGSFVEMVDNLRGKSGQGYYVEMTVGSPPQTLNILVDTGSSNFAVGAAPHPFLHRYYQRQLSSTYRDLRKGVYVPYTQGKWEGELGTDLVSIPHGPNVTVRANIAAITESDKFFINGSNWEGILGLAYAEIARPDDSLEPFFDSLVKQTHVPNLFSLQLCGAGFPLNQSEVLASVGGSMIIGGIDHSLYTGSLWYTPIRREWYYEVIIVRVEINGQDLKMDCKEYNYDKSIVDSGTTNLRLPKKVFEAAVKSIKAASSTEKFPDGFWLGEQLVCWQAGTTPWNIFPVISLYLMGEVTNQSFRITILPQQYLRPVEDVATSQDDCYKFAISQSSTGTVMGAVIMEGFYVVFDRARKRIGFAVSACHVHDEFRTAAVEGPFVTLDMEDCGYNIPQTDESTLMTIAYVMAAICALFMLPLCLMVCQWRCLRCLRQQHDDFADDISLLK

| Compound | IC50 [nM] |
| --- | --- |
| C[C@@H](NC(=O)c1cc(C2=NC(CO)(Cc3ccccc3)CO2)cc(N(C)S(C)(=O)=O)c1)c1ccc(F)cc1 (stereo not given in full) | 12500 |
| C[C@@H](NC(=O)c1cc(COC(=O)[C@](C)(N)Cc2ccccc2)cc(N(C)S(C)(=O)=O)c1)c1ccc(F)cc1 | 27 |
| C[C@@H](NC(=O)c1cc(C(=O)NC(CO)(CO)Cc2ccccc2)cc(N(C)S(C)(=O)=O)c1)c1ccc(F)cc1 | 2700 |
| C[C@@H](NC(=O)c1cc(COC[C@](C)(N)Cc2ccccc2)cc(N(C)S(C)(=O)=O)c1)c1ccc(F)cc1 | 430 |
| C[C@@H](NC(=O)c1cc(COC[C@@](N)(CO)Cc2ccccc2)cc(N(C)S(C)(=O)=O)c1)c1ccc(F)cc1 | 1370 |
